This is an account of results in ChEMBL document CHEMBL6087480, “In Search for Inhibitors of Human Aldo-Keto Reductase 1B10 (AKR1B10) as Novel Agents to Fight Cancer and Chemoresistance: Current State-of-the-Art and Prospects” (J Med Chem, 2025).

SMILES strings stand for the structures.

Assay [1] has as its target T1, Aldo-keto reductase family 1 member B1 (Homo sapiens, UniProt P15121). Nature of the assay: Inhibition of human recombinant AKR1B1.
Assay [2] concerns the target T2, Aldo-keto reductase family 1 member B10 (Homo sapiens, UniProt O60218). Nature of the assay: Inhibition of AKR1B10 (unknown origin).
In assay [3] the target is T1, Aldo-keto reductase family 1 member B1. Put plainly: Inhibition of AKR1B1 (unknown origin).
For assay [4] the target is unchanged. Nature of the assay: Inhibition of human recombinant AKR1B1 by fluorescence based analysis.
Assay [5] deals with T2, Aldo-keto reductase family 1 member B10. Put plainly: Inhibition of human recombinant AKR1B10.
Assay [6] concerns the target T1, Aldo-keto reductase family 1 member B1. Nature of the assay: Inhibition of N-terminal 6his-tagged wild type human recombinant AKR1B1 extracted from Escherichia coli BL21 (DE3) by fluorescence based analysis.

T2 sequence (O60218 whole entry): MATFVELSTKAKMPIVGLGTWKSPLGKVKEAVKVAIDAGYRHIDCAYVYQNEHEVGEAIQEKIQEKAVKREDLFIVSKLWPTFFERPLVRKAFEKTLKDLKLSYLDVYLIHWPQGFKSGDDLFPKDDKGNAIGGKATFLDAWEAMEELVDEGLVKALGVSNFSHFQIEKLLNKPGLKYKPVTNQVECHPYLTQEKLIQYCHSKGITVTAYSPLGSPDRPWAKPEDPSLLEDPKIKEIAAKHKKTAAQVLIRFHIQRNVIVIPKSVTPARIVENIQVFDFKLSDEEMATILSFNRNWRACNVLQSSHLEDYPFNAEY

Consider `COc1cc(/C=C/C(=O)CC(=O)/C=C/c2ccc(O)cc2)ccc1O`, for which the IC50 (usually the concentration needed to halve the response being measured) in assay [1] is 1.2 µM. In assay [2], `COc1ccc(OC)c(/N=c2\oc3cc(O)ccc3cc2C(=O)Nc2ccccn2)c1` gave a concentration for half-maximal inhibition (IC50) of 0.02 µM. In assay [2], `COc1ccc(/N=c2\oc3cc(O)ccc3cc2C(=O)Nc2cccc(C)n2)cc1OC` displayed an IC50 of 0.03 µM. On the same count and under the same terms, the value for `COc1ccc(/N=c2\oc3cc(O)ccc3cc2C(=O)Nc2ccccn2)c(OC)c1` was 0.01 µM; that for `COc1ccc(/N=c2\oc3cc(O)ccc3cc2C(=O)Nc2ccccn2)cc1` was 0.5 µM. Turning to `C[C@]12CCC(=O)C[C@@H]1CC[C@@H]1[C@@H]2CC[C@]2(C)C(=O)CC[C@@H]12`, the IC50 in assay [3] is 25 µM; in assay [2], 0.39 µM. Turning to `CC1=C(CC(=O)O)c2cc(F)ccc2/C1=C\c1ccc([S+](C)[O-])cc1` (stereo not given), the IC50 worked out at 0.21 µM in assay [4] and 0.35 µM in assay [5].

With `O=C(O)Cn1ccc(=O)n(Cc2ccc(Cl)c([N+](=O)[O-])c2)c1=O`, the half-inhibitory concentration (IC50) came out at 10 µM in assay [3] and 21.6 µM in assay [2].

As for `Cc1c2cc(O)c(=O)cc-2oc2cc(O)c(O)cc12`, the 50% inhibitory concentration (IC50) in assay [2] was 0.4 µM. In assay [2], `COc1cc(O)ccc1/C=C/C(=O)OCCc1ccccc1` came in with an IC50 of 0.01 µM. The same measure, in the same setting: for `COc1cc(O)ccc1/C=C/C(=O)OCCCc1ccccc1O` the value was 0.1 µM.

For `COc1cc(O)ccc1/C=C/C(=O)OCCCc1cccc(O)c1`, it took 0.5 µM to reach half-maximal inhibition in assay [2] (IC50). Consider `CC(C)=CCc1c(O)cc2oc3cc(O)c(O)c(CC=C(C)C)c3c(=O)c2c1O`, for which the 50% inhibitory concentration (IC50) in assay [1] worked out at 0.29 µM.

`O=C(/C=C/c1ccc(O)c(O)c1)O[C@H]1C[C@@](O)(C(=O)O)C[C@H](O)[C@@H]1O`: the midpoint of inhibition in assay [2], the IC50, lay at 7.9 µM. As to `CC(C)=CCC1=C(O)[C@](O)(CC=C(C)C)C(=O)C(C(=O)CC(C)C)=C1O`, the values for the 50% inhibitory concentration (IC50) in assay [3] and in assay [2] were more than 125 µM and 1.94 µM, respectively.

Consider `C=CCc1cc(-c2cccc(CC=C)c2O)ccc1O`, for which the IC50 in assay [1] came to 36 µM. For `O=C(NCCCc1cccc(O)c1)c1cc2ccc(O)cc2oc1=O`, the IC50 in assay [2] was 0.8 µM.

`CC(=O)[C@H]1CC[C@H]2[C@@H]3CC[C@H]4CC(=O)CC[C@]4(C)[C@H]3CC[C@]12C`: the IC50 in assay [3] was determined as 13 µM; in assay [2], 0.44 µM. Regarding `COc1cc(O)c(CC=C(C)C)c2c1C(=O)C[C@@H](c1ccc(O)cc1)O2`, the IC50 in assay [3] was determined as 0.57 µM; in assay [2], 1.09 µM.

As to `CC(=O)[C@H]1CC[C@H]2[C@@H]3CC[C@@H]4CC(=O)CC[C@]4(C)[C@H]3CC[C@]12C`, the IC50 in assay [3] was determined as 9 µM; in assay [2] it was 0.78 µM. The like results for `C[C@@]12CCC[C@H]1[C@@H]1C[C@H](O)C3=C[C@@H](O)CC[C@]3(C)[C@H]1CC2` were, in that order, 68 µM and 0.5 µM. For `Oc1c(F)c(F)c(-c2c(F)c(F)c(O)c(F)c2F)c(F)c1F` the same measures were 0.3 µM and 1 µM. In assay [3], `CC(C)=CCC1=C(O)[C@](O)(CC=C(C)C)C(=O)C(C(=O)C(C)C)=C1O` gave an IC50 of more than 125 µM. As to `C/C(=C\c1ccc(C(=O)O)cc1Br)c1ccc2c(c1)C(C)(C)CCC2(C)C`, the IC50 is more than 70 µM in assay [3] and 6.1 µM in assay [2]. Regarding `C[C@]12CCC(=O)C[C@@H]1CC[C@@H]1[C@@H]2CC[C@]2(C)[C@@H](C(=O)CO)CC[C@@H]12`, the IC50 in assay [3] came out at 55 µM; in assay [2], 0.37 µM. Consider `COc1c(Cn2c(=O)ccn(CC(=O)O)c2=O)cc(Br)c(Br)c1Br`, for which the IC50 is 3.6 µM in assay [3] and 0.45 µM in assay [2].

As for `C[C@H](CCC(=O)O)[C@H]1CC[C@H]2[C@@H]3C[C@@H](O)[C@@]4(O)C[C@@H](O)CC[C@]4(C)[C@H]3CC[C@]12C`, the IC50 in assay [3] was more than 100 µM; in assay [2], 0.83 µM. Regarding `C[C@@]12CCC[C@H]1[C@@H]1CC(=O)C3=CC(=O)CC[C@]3(C)[C@H]1CC2`, the IC50 was 158 µM in assay [3] and 0.81 µM in assay [2]. For `C[C@H](CCC(=O)O)[C@H]1CC[C@H]2[C@@H]3C[C@@H](O)[C@@]4(O)C[C@@H](O)CC[C@]4(CO)[C@H]3CC[C@]12C`, the IC50 was 5.4 µM in assay [3] and 0.76 µM in assay [2]. In the case of `NC(=O)[C@@H]1C[C@]2(NC(=O)NC2=O)c2cc(F)ccc2O1`, the IC50 was 0.08 µM in assay [6] and 24 µM in assay [2].

In the case of `O=C(/C=C/c1ccc(O)c(O)c1)c1ccc(O)cc1O` [BUTEIN], the IC50 in assay [1] was 0.5 µM. Turning to `O=c1cc(-c2ccccc2)oc2cc(O)cc(O)c12` [CHRYSIN], the results for the IC50 in assay [3] and in assay [2] were 0.29 µM and 2.1 µM, respectively. `COc1cc(/C=C/C(=O)CC(=O)/C=C/c2ccc(O)c(OC)c2)ccc1O` [CURCUMIN]: the concentration for half-maximal inhibition (IC50) in assay [1] turned out to be 7.3 µM. With `O=C(O)Cc1ccccc1Nc1c(Cl)cccc1Cl` [DICLOFENAC], the IC50 in assay [4] was more than 100 µM. With `Cc1cc(O)c2c(c1)C(=O)c1cc(O)cc(O)c1C2=O` [EMODIN], the IC50 in assay [1] amounted to 3.47 µM. Turning to `C[C@]12CC[C@H](O)C[C@@H]1CC[C@@H]1[C@@H]2CC[C@]2(C)C(=O)CC[C@@H]12` [EPIANDROSTERONE], the IC50 in assay [3] came to 37 µM; in assay [2] it was 0.32 µM.

On to `C[C@]12CC[C@@H]3c4ccc(O)cc4CC[C@H]3[C@@H]1CC[C@@H]2O` [ESTRADIOL], for which the IC50 in assay [3] is 24 µM; in assay [2], 3 µM. Take `C[C@]12CC[C@@H]3c4ccc(O)cc4CC[C@H]3[C@@H]1CCC2=O` [ESTRONE]: the IC50 in assay [3] stood at 31 µM; in assay [2], 1.6 µM. For the compound `Cc1cc(O)c2c(c1)C(=O)c1cc(O[C@@H]3O[C@@H](C)[C@H](O)[C@@H](O)[C@H]3O)cc(O)c1C2=O` [FRANGULIN A], the IC50 in assay [1] is 5.73 µM. Still for that read-out and setting: for `Cc1cc(O)c2c(c1)C(=O)c1cc(O[C@@H]3OC[C@](O)(CO)[C@H]3O)cc(O)c1C2=O` [FRANGULIN B] the value was 5.45 µM.

Turning to `O=c1c(-c2ccc(O)cc2)coc2cc(O)cc(O)c12` [GENISTEIN], in assay [2], it took 5.5 µM to reach half-maximal inhibition (IC50). The same measure, in the same setting: the value for `C[C@H](CCC(=O)O)[C@H]1CC[C@H]2[C@@H]3CC[C@@H]4C[C@@H](O)CC[C@]4(C)[C@H]3CC[C@]12C` [ISOLITHOCHOLIC ACID] was 0.02 µM.

Turning to `C=CCc1ccc(O)c(-c2cc(CC=C)ccc2O)c1` [MAGNOLOL], in assay [1], the IC50 came to 28 µM. Same read-out and setting: for `COc1c(O)cc2oc3cc(O)c(CC=C(C)C)c(O)c3c(=O)c2c1CC=C(C)C` [MANGOSTIN] the value was 4.1 µM. Consider `CC1(C)CC[C@]2(C(=O)O)CC[C@]3(C)C(=CC[C@@H]4[C@@]5(C)C[C@@H](O)[C@H](O)C(C)(C)[C@@H]5CC[C@]43C)[C@@H]2C1` [MASLINIC ACID], for which, in assay [2], the IC50 is 0.6 µM.

Turning to `Cc1ccc(Cl)c(Nc2ccccc2C(=O)O)c1Cl` [MECLOFENAMIC ACID], the IC50 was more than 100 µM in assay [4] and 9.8 µM in assay [5]. `O=c1c(O)c(-c2cc(O)c(O)c(O)c2)oc2cc(O)cc(O)c12` [MYRICETIN] came in with an IC50 in assay [3] of 0.61 µM.

Take `O=c1c(O)c(-c2ccc(O)c(O)c2)oc2cc(O)cc(O)c12` [QUERCETIN]: half-maximal inhibition in assay [2] (IC50) required 1.9 µM. As for `Oc1ccc(/C=C/c2cc(O)cc(O)c2)cc1` [RESVERATROL], the IC50 in assay [1] was determined as 73 µM. Regarding `CC(=O)[C@H]1CC[C@H]2[C@@H]3CC[C@H]4C[C@@H](O)CC[C@]4(C)[C@H]3CC[C@]12C` [SEPRANOLONE], the IC50 is 39 µM in assay [3] and 0.5 µM in assay [2].

Compound `COc1ccc2c(C(=S)N(C)CC(=O)O)cccc2c1C(F)(F)F` [TOLRESTAT] returned a concentration for half-maximal inhibition (IC50) in assay [2] of 0.05 µM. For the compound `C[C@H](CCC(=O)O)[C@H]1CC[C@H]2[C@@H]3CC[C@@H]4CCCC[C@]4(C)[C@H]3CC[C@]12C` [URSOCHOLANIC ACID], the half-inhibitory concentration (IC50) came to 16 µM in assay [3] and 0.05 µM in assay [2].
